Among the data in patent US4895973A, “Substituted glutaric acid lactones in the treatment of hyperlipidemia” (G. D. Searle & Company, priority 1988, dated 1990) are IC50 values, retold here.

The target of this experiment is T1, rat liver microsomal HMGCoA reductase (Rattus norvegicus, UniProt P51639).
T1 construct: rat liver microsomal HMGCoA reductase; from tissue; host or cells: rat liver microsomes
T1 sequence (P51639 1-887): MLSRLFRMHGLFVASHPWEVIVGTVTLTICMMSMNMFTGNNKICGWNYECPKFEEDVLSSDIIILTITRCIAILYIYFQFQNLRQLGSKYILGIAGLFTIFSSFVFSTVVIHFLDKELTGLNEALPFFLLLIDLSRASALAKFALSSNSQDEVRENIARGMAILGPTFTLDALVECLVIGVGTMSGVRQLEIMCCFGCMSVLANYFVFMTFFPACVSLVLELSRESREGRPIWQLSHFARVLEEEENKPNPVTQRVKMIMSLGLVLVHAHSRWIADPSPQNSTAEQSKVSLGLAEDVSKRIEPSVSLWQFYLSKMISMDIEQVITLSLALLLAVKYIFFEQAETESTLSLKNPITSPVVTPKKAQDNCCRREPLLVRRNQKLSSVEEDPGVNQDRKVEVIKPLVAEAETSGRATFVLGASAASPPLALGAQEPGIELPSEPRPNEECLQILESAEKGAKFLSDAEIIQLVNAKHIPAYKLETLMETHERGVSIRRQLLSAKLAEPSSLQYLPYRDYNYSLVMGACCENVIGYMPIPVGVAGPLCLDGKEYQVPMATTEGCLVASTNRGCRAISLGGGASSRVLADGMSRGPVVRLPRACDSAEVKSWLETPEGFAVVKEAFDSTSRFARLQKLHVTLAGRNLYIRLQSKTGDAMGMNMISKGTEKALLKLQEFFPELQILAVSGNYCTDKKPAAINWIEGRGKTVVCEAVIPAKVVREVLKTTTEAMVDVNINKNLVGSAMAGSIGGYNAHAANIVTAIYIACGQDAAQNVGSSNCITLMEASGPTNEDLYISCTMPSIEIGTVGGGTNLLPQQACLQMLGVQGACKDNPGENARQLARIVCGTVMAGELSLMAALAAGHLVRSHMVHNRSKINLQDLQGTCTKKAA
The experiment in a line: in vitro inhibition of rat liver microsomal HMGCoA reductase. It counts as biochemical. Conditions: 40 μM 14C-HMGCoA, 15 min at 37° C., pH7.2. On the procedure: The IC50 is defined as the concentration required to inhibit the enzyme by 50% of control.
Triplicate samples are preincubated for 15 min. at 37° C. in a volume of 1 ml. […] Mevalonic acid is extracted with ether and the % ^14 C-HMGCoA incorporation determined for concurrent control and test reaction systems. Testing is done (first) with a range finding assay followed by a 4 or 5 point assay to find the IC50 value.
On the technique in general: Microsomes from liver hold many membrane-bound enzymes, among them those of drug oxidation.

The term IC50 denotes the concentration at which inhibition is half-maximal. A low value points to greater potency in that assay. In turn, `CC[C@H](C)C(=O)O[C@H]1CCC=C2C=C[C@H](C)[C@H](CC[C@@H]3C[C@@H](O)CC(=O)O3)[C@H]21` [Compactin] returned a half-inhibitory concentration (IC50) of 1000 nM.
